Results published in patent publication US6579896B2, “Method for treating allergies using substituted pyrazoles” (Ortho-McNeil Pharmaceutical, Inc., priority 2000, dated 2003).

How the values were obtained:
[1] = tested on: PBMC from HDM-allergic donors (allergen-specific CD4 T cells); assay: Ex vivo human T cell-proliferation assay, house dust mite extracts (Der p, Der f); format: cell-based; conditions: PBMC of four HDM-allergic donors, Der p or Der f extract, 7 days culture, FIG. 1B
[2] = tested on: invariant chain (Ii) degradation by cathepsin S in PBMC; assay: Monitoring cathepsin S inhibition in human blood: p10Ii fragment accumulation (Western blot); format: cell-based; conditions: PBMC from human blood, incubation for 24 h, SDS-PAGE / Western blot
[3] = tested on: PBMC from ragweed-allergic donors (allergen-specific CD4 T cells); assay: Ex vivo human T cell-proliferation assay, ragweed extracts (short and giant); format: cell-based; conditions: PBMC of two ragweed-allergic donors, short and giant ragweed extract, 7 days culture, FIG. 2B
[4] = tested on: PBMC from allergic donors (T cells, ConA pan-T cell mitogen); assay: T cell proliferative responses induced by ConA; format: cell-based, human; conditions: specificity control

## CC(C)C[C@H](NC(=O)N1CCOCC1)C(=O)N[C@H](/C=C/S(=O)(=O)c1ccccc1)CCc1ccccc1 [LHVS, 4-morpholinecarboxamide, N-[(1S)-3-methyl-1-[[[(1S,2E)-1-(2-phenylethyl)-3-(phenylsulfonyl)-2-propenyl]amino]carbonyl]butyl]-]
[1]
  T cell proliferation (3H-thymidine incorporation) induced by HDM extracts: strongly inhibited
[2]
  p10Ii fragment of invariant chain (block in degradation of Ii): the p10Ii fragment was seen
[3]
  T cell proliferation (3H-thymidine incorporation) induced by ragweed extracts: strongly inhibited
[4]; HDM-allergic donors
  T cell proliferative responses induced by ConA: not affected
[4]; ragweed-allergic donors
  T cell proliferative responses induced by ConA: not affected
